{"source": "patent US11529341B2", "about": "“Bicyclic compounds as inhibitors of PD1/PD-L1 interaction/activation” (JUBILANT PRODEL LLC, priority 2018, dated 2022)", "note": "pIC50: −log10 of the molar value.", "data": [{"biological_target": "T1, PD-1/PD-L1 interaction (Homo sapiens, UniProt Q9NZQ7)", "T1 construct": "Tag1 (undisclosed kit tag); purchased CisBio 63ADK000CPAPEG", "T1 sequence (Q9NZQ7 19-238 limits assumed)": "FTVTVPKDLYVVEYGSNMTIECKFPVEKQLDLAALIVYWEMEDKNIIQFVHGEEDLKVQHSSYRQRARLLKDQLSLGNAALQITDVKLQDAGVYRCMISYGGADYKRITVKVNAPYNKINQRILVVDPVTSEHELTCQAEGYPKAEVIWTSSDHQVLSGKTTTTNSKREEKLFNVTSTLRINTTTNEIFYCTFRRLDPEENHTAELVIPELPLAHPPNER", "test": "PD-1/PD-L1 Homogenous Time-Resolved Fluorescence (HTRF) binding assay (CisBio kit)", "settings": "Biochemical PD1/PD-L1 inhibition", "how_it_was_run": "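Tagged PD-L1 and PD-1 proteins preincubated with compound 15 min, then anti-Tag1-Eu3+ donor and anti-Tag2-XL665 acceptor added, 1 h at room temperature. Emission read at 665 and 620 nm; signal expressed as HTRF ratio (665/620)×10^4, loss of signal indicating blocked binding.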", "values": [{"compound": "Cc1c(COc2cc(OCc3cccc(C#N)c3)c(CN(C)C)c3c2CCC3)cccc1-c1ccccc1", "note": "[Compound 92, 3-(((4-((dimethylamino)methyl)-7-((2-methyl-[1,1′-biphenyl]-3-yl)methoxy)-2,3-dihydro-1H-inden-5-yl)oxy)methyl)benzonitrile]", "pIC50": "> 7.00"}, {"compound": "COc1cc(OCc2cccc(-c3ccccc3)c2C#N)c2c(c1CN1C[C@H](O)C[C@H]1C(=O)O)CCC2", "note": "[Compound 57, (2S,4R)-1-((7-((2-cyano-[1,1′-biphenyl]-3-yl)methoxy)-5-methoxy-2,3-dihydro-1H-inden-4-yl)methyl)-4-hydroxypyrrolidine-2-carboxylic acid]", "pIC50": "> 7.00"}, {"compound": "Cc1cc(CN2CCCC[C@H]2C(=O)O)c2c(c1OCc1cccc(-c3ccccc3)c1C)CCC2", "note": "[Compound 4, (S)-1-((6-methyl-7-((2-methyl-[1,1′-biphenyl]-3-yl)methoxy)-2,3-dihydro-1H-inden-4-yl)methyl)piperidine-2-carboxylic acid]", "pIC50": "6.30 to 7.00"}, {"compound": "CC(=O)NCCNCc1c(OC[C@H]2C[C@H]2C(=O)O)cc(OCc2cccc(-c3ccccc3)c2C)c2c1CCC2", "note": "[Compound 83, (1R,2S)-2-(((4-(((2-acetamidoethyl)amino)methyl)-7-((2-methyl-[1,1′-biphenyl]-3-yl)methoxy)-2,3-dihydro-1H-inden-5-yl)oxy)methyl)cyclopropane-1-carboxylic acid]", "pIC50": "6.30 to 7.00"}, {"compound": "CC(=O)NCCNCc1c(OCc2cncc(C(N)=O)c2)cc(OCc2cccc(-c3ccccc3)c2C)c2c1CCC2", "note": "[Compound 94, 5-(((4-(((2-acetamidoethyl)amino)methyl)-7-((2-methyl-[1,1′-biphenyl]-3-yl)methoxy)-2,3-dihydro-1H-inden-5-yl)oxy)methyl)nicotinamide]", "pIC50": "> 7.00"}, {"compound": "N#Cc1cncc(COc2cc(OCc3cccc(-c4ccccc4)c3C#N)c3c(c2CN2CCCC[C@H]2C(=O)O)CCC3)c1", "note": "[Compound 69, (S)-1-((7-((2-cyano-[1,1′-biphenyl]-3-yl)methoxy)-5-((5-cyanopyridin-3-yl)methoxy)-2,3-dihydro-1H-inden-4-yl)methyl)piperidine-2-carboxylic acid]", "pIC50": "> 7.00"}, {"compound": "Cc1c(COc2ccc(CNC(C)CC(=O)O)c3c2CCC3)cccc1-c1ccccc1", "note": "(centres unmarked) [Compound 23, 3-(((7-((2-methyl-[1,1′-biphenyl]-3-yl)methoxy)-2,3-dihydro-1H-inden-4-yl)methyl)amino)butanoic acid]", "pIC50": "< 6.30"}, {"compound": "Cc1c(COc2cc(OCC(F)(F)F)c(CN3CCCC[C@H]3C(=O)O)c3c2CCC3)cccc1-c1ccccc1", "note": "[Compound 12, (S)-1-((7-((2-methyl-[1,1′-biphenyl]-3-yl)methoxy)-5-(2,2,2-trifluoroethoxy)-2,3-dihydro-1H-inden-4-yl)methyl)piperidine-2-carboxylic acid]", "pIC50": "> 7.00"}, {"compound": "Cc1c(COc2cc(OCc3cccc(C#N)c3)c(CN)c3c2CCC3)cccc1-c1ccccc1", "note": "[Compound 89, 3-(((4-(aminomethyl)-7-((2-methyl-[1,1′-biphenyl]-3-yl)methoxy)-2,3-dihydro-1H-inden-5-yl)oxy)methyl)benzonitrile]", "pIC50": "> 7.00"}, {"compound": "Cc1c(COc2cc(OCc3cccc(C#N)c3)c(CNCCCC(=O)O)c3c2CCC3)cccc1-c1ccccc1", "note": "[Compound 44, 4-(((5-((3-cyanobenzyl)oxy)-7-((2-methyl-[1,1′-biphenyl]-3-yl)methoxy)-2,3-dihydro-1H-inden-4-yl)methyl)amino)butanoic acid]", "pIC50": "> 7.00"}, {"compound": "Cc1c(COc2cc(OCc3cccc(C#N)c3)c(CNC(CO)(CO)CO)c3c2CCC3)cccc1-c1ccccc1", "note": "[Compound 38, 3-(((4-(((1,3-dihydroxy-2-(hydroxymethyl)propan-2-yl)amino)methyl)-7-((2-methyl-[1,1′-biphenyl]-3-yl)methoxy)-2,3-dihydro-1H-inden-5-yl)oxy)methyl)benzonitrile]", "pIC50": "> 7.00"}, {"compound": "Cc1c(COc2ccc(CNCCC(=O)O)c3c2CCC3)cccc1-c1ccccc1", "note": "[Compound 21, 3-(((7-((2-methyl-[1,1′-biphenyl]-3-yl)methoxy)-2,3-dihydro-1H-inden-4-yl)methyl)amino)propanoic acid]", "pIC50": "< 6.30"}, {"compound": "COc1cc(OCc2cccc(-c3cccc(OCCCN4CCC(F)(F)C4)c3C)c2C)c2c(c1CN1C[C@H](O)C[C@H]1C(=O)O)CCC2", "note": "[Compound 33, (2S,4R)-1-((7-((3′-(3-(3,3-difluoropyrrolidin-1-yl)propoxy)-2,2′-dimethyl-[1,1′-biphenyl]-3-yl)methoxy)-5-methoxy-2,3-dihydro-1H-inden-4-yl)methyl)-4-hydroxypyrrolidine-2-carboxylic acid]", "pIC50": "< 6.30"}, {"compound": "CC(=O)NC1CCCN(Cc2c(OCc3cccc(C#N)c3)cc(OCc3cccc(-c4ccccc4)c3C)c3c2CCC3)C1", "note": "(centres unmarked) [Compound 15, N-(1-((5-((3-cyanobenzyl)oxy)-7-((2-methyl-[1,1′-biphenyl]-3-yl)methoxy)-2,3-dihydro-1H-inden-4-yl)methyl)piperidin-3-yl)acetamide]", "pIC50": "> 7.00"}, {"compound": "Cc1c(COc2cc(OCCCCC(=O)O)c(CN3CCCC[C@H]3C(=O)O)c3c2CCC3)cccc1-c1ccccc1", "note": "[Compound 67, (S)-1-((5-(4-carboxybutoxy)-7-((2-methyl-[1,1′-biphenyl]-3-yl)methoxy)-2,3-dihydro-1H-inden-4-yl)methyl)piperidine-2-carboxylic acid]", "pIC50": "> 7.00"}, {"compound": "COc1cc(OCc2cccc(-c3ccccc3)c2C)c2c(c1CN1C[C@H](O)C[C@H]1C(=O)O)CCC2", "note": "[Compound 25, (2S,4R)-4-hydroxy-1-((5-methoxy-7-((2-methyl-[1,1′-biphenyl]-3-yl)methoxy)-2,3-dihydro-1H-inden-4-yl)methyl)pyrrolidine-2-carboxylic acid]", "pIC50": "> 7.00"}, {"compound": "CC(=O)NCCNCc1c(OCc2cccc(C#N)c2)cc(OCc2cccc(-c3ccccc3C)c2C)c2c1CCC2", "note": "[Compound 86, N-(2-(((5-((3-cyanobenzyl)oxy)-7-((2,2′-dimethyl-[1,1′-biphenyl]-3-yl)methoxy)-2,3-dihydro-1H-inden-4-yl)methyl)amino)ethyl)acetamide]", "pIC50": "6.30 to 7.00"}, {"compound": "Cc1c(COc2cc(OCc3cncc(C#N)c3)c(CN3C[C@H](O)C[C@H]3C(=O)O)c3c2CCC3)cccc1-c1ccccc1", "note": "[Compound 47, (2S,4R)-1-((5-((5-cyanopyridin-3-yl)methoxy)-7-((2-methyl-[1,1′-biphenyl]-3-yl)methoxy)-2,3-dihydro-1H-inden-4-yl)methyl)-4-hydroxypyrrolidine-2-carboxylic acid]", "pIC50": "> 7.00"}, {"compound": "Cc1c(COc2cc(OCCCCC#N)c(CN3CCCC[C@H]3C(N)=O)c3c2CCC3)cccc1-c1ccccc1", "note": "[Compound 80, (S)-1-((5-(4-cyanobutoxy)-7-((2-methyl-[1,1′-biphenyl]-3-yl)methoxy)-2,3-dihydro-1H-inden-4-yl)methyl)piperidine-2-carboxamide]", "pIC50": "< 6.30"}, {"compound": "Cc1c(COc2cc(OCc3cccc(C#N)c3)c(CN3C[C@H](O)C[C@H]3C(=O)O)c3c2CCC3)cccc1-c1ccccc1", "note": "[Compound 35, (2S,4R)-1-((5-((3-cyanobenzyl)oxy)-7-((2-methyl-[1,1′-biphenyl]-3-yl)methoxy)-2,3-dihydro-1H-inden-4-yl)methyl)-4-hydroxypyrrolidine-2-carboxylic acid]", "pIC50": "> 7.00"}, {"compound": "N#Cc1c(COc2cc(OCCCCC(=O)O)c(CN3CCCC[C@H]3C(=O)O)c3c2CCC3)cccc1-c1ccccc1", "note": "[Compound 78, (S)-1-((5-(4-carboxybutoxy)-7-((2-cyano-[1,1′-biphenyl]-3-yl)methoxy)-2,3-dihydro-1H-inden-4-yl)methyl)piperidine-2-carboxylic acid]", "pIC50": "> 7.00"}, {"compound": "CC(=O)NCCNCc1c(OCc2ccc(C#N)cc2)cc(OCc2cccc(-c3ccccc3)c2C)c2c1CCC2", "note": "[Compound 54, N-(2-(((5-((4-cyanobenzyl)oxy)-7-((2-methyl-[1,1′-biphenyl]-3-yl)methoxy)-2,3-dihydro-1H-inden-4-yl)methyl)amino)ethyl)acetamide]", "pIC50": "6.30 to 7.00"}, {"compound": "Cc1c(COc2cc(OCc3cccc(C#N)c3)c(CN3CC4(CC4)C[C@H]3C(=O)O)c3c2CCC3)cccc1-c1ccccc1", "note": "[Compound 42, (S)-5-((5-((3-cyanobenzyl)oxy)-7-((2-methyl-[1,1′-biphenyl]-3-yl)methoxy)-2,3-dihydro-1H-inden-4-yl)methyl)-5-azaspiro[2.4]heptane-6-carboxylic acid]", "pIC50": "> 7.00"}]}]}
